Earlier results in patent publication EP2738198A1, “Enzymatic synthesis of polyamide in aqueous mini-emulsion” (Henkel AG & Co. KGaA, priority 2012, dated 2014).

details: alcohol CnH2n+1OH corresponding to the alkyl group of the di(alkyl) sebacate, data from Handbook of Chemistry and Physics 86th Edition

Structure (SMILES)	Partial Solubility of CnH2n+1OH in water
CCO [n 2]	∞
CCCCCCO [n 6]	7900 µg/mL
CCCCCCCCO [n 8]	300 µg/mL
